Consider 2 compounds from patent publication US20180028520A1, “METHODS AND PHARMACEUTICAL COMPOSITIONS FOR TREATMENT OF AMYOTROPHIC LATERAL SCLEROSIS” (priority 2014, published 2018).

Experiment [1] concerns brain slices derived from a mouse model of tauopathy. The note with it: inhibition of PLDs; cited from earlier work.
The next experiment deals with ALS iPS-MNs. The experiment in a line: AIS (axon initial segment) length by ankyrin G immunostaining. The note with it: data not shown. The format is cell-based, human.

In the case of `O=C(NCCN1CCC(n2c(=O)[nH]c3ccccc32)CC1)c1cc2cc(F)ccc2[nH]1` [FIPI, 5-fluoro-2-indolyl des-chlorohalopemide], the “effect on insoluble tau aggregates” value in experiment [1] was “increased insoluble tau aggregates”. In the case of `C=C(C)[C@H]1CN[C@H](C(=O)O)[C@H]1CC(=O)O` [kainate, kainic acid], the “effect on shortening of the AIS” value with ALS iPS-MNs is on record as “further exacerbated”.
